Measured values as given in PMC7673538 (PLoS Biology, 2020).
“And” between values parts separate entries of the source, which are not always exact repeats. Equal values may be shown once. Read-outs that look alike come from different tables or passages of the source.

Legend:
[1] = target: T1, human NET (Homo sapiens, UniProt P23975); assay type: cell-based; settings: for NET, Mean (Figure 8B): Control = 100; for NET, Mean as % (Figure 8B): Control = 100%
T1 construct: expressed in transfected cells; host or cells: HEK293 (gift of Dr. Hoener, F. Hoffmann-La Roche)
T1 sequence (P23975 whole entry): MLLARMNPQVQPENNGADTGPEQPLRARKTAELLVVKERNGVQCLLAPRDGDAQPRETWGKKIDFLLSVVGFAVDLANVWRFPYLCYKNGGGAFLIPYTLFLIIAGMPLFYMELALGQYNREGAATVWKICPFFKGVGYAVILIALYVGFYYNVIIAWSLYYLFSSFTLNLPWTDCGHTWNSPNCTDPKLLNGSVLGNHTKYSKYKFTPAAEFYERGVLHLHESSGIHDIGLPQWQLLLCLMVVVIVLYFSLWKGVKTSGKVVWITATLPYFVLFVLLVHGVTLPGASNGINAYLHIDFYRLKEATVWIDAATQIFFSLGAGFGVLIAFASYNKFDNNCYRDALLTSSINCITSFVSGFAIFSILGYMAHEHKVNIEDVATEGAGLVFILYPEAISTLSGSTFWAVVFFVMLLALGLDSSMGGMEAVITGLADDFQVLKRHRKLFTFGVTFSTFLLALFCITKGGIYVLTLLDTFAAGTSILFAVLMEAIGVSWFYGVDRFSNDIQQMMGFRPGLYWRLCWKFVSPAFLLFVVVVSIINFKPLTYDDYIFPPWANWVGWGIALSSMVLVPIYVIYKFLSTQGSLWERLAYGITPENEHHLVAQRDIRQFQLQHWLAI

[2] = system: EV-A71; assay: microbe, parasite or virus in culture; assay type: cell-based, enterovirus A71; settings: for EC50: Enterovirus A
[3] = system: representative EVs and RVs; assay type: cell-based
[4] = system: CV-B3; assay: microbe, parasite or virus in culture; assay type: cell-based, coxsackievirus B3
[5] = system: CV-A24 (strain Joseph); assay type: cell-based, coxsackievirus A24
[6] = in vitro; settings: monkey
[7] = system: CV-A24v; assay: microbe, parasite or virus in culture; assay type: cell-based, coxsackievirus A24v

In the case of `COc1ccc(N(Cc2ccc(F)cc2)C(=O)c2cc[nH]c2)cc1` [Compound 12a, N-(4-Fluorobenzyl)-N-(4-methoxyphenyl)-1H-pyrrole-3-carboxamide], the “NET, Mean (Figure 8B)” value ([1]; 1µM) is reported as 121.035, the “NET, Mean as % (Figure 8B)” value ([1]; 1µM) is reported as 121% and the “NET, Mean (Figure 8B)” value ([1]; 100µM) is reported as 112.597. The “NET, Mean as % (Figure 8B)” value ([1]; 100µM) was 113%, the “inhibition of NET function (in words)” value ([1]; HEK293 cells expressing human NET, 1 μM or 100 μM) was “neither 12a, 19b, 19d, nor the combined compound 12b inhibited” and the “Figure 7 dose-response raw data, EV-A71 (triplicate values)” value (from here on “Figure 7 dose-response raw data, EV-A71”) ([2]; Concentration 0.0046 µM) was 12.3336 and 15.0352 and 19.2639. For the same compound, the “Figure 7 dose-response raw data, EV-A71” value ([2]; Concentration 0.0137 µM) was 12.3336 and 12.2161 and 11.2764, the “Figure 7 dose-response raw data, EV-A71” value ([2]; Concentration 0.0412 µM) was 12.0987 and 12.2161 and 13.2733 and the “Figure 7 dose-response raw data, EV-A71” value ([2]; Concentration 0.1235 µM) was 11.9812 and 14.0955 and 13.6257. For the same compound, the “Figure 7 dose-response raw data, EV-A71” value ([2]; Concentration 0.3704 µM) was 12.5685 and 16.7972 and 13.6257, the “Figure 7 dose-response raw data, EV-A71” value ([2]; Concentration 1.1111 µM) was 12.3336 and 15.0352 and 19.2639 and the “Figure 7 dose-response raw data, EV-A71” value ([2]; Concentration 3.3333 µM) was 12.3336 and 15.0352 and 19.2639. For the same compound, the “Figure 7 dose-response raw data, EV-A71” value ([2]; Concentration 11.1111 µM) was 119.819 and 116.746 and 110.126, the “Figure 7 dose-response raw data, EV-A71” value ([2]; Concentration 33.3333 µM) was 119.701 and 118.637 and 111.781 and the “Figure 7 dose-response raw data, EV-A71” value ([2]; Concentration 100 µM) was 110.819 and 116.746 and 120.126. It also gave an EC50 ([2]; EVA71, HeLa R19, read-out: EC50 EV-A71) of 4.03 ± 0.73 µM, an EC50 ([2]; EVA71, HeLa R19, read-out: EC50 EV-A71 strain BrCr) of 4.48 ± 0.42 µM and an EC50 ([2]; EVA71, HeLa R19, read-out: EC50 EV-A71 strain TW/2728/04) of 8.33 ± 0.65 µM. For the same compound, the EC50 ([2]; EVA71, HeLa R19, read-out: EC50 EV-A71 strain TW/2945/98) was 9.17 ± 0.41 µM, the EC50 ([2]; EVA71, HeLa R19, read-out: EC50 EV-A71 strain TW/70811/08) was 8.18 ± 0.61 µM and the EC50 ([2]; EVA71, HeLa R19, read-out: EC50 EV-A71 strain TW/72232/04) was 6.41 ± 2.09 µM. For the same compound, the EC50 ([2]; EVA71, HeLa R19, read-out: EC50 EV-A71 strain TW/96016/08) was 9.47 ± 0.04 µM, the “inhibition of contemporary/clinical isolates of EV-A71, CV-A24v and EV-D68 (in words)” value [3] was “inhibited all clinical isolates of EV-A71, CV-A24v, and EV-D68 tested” and the “spectrum of antiviral activity (in words)” value [3] was “inhibited all representative EVs and RVs”. For the same compound, the “cross-resistance of 19d-resistant CV-B3 virus pools (in words)” value [4] was “cross-resistant”, the “increase of antiviral activity against CV-B3” value [4] was ~25 fold and the “Figure 7 dose-response raw data, CV-B3 (triplicate values)” value (“Figure 7 dose-response raw data, CV-B3” for short) ([4]; Concentration 0.001 µM) was 10.6023 and 13.4886 and 15.1049. For the same compound, the “Figure 7 dose-response raw data, CV-B3” value ([4]; Concentration 0.0137 µM) was 31.7298 and 16.0285 and 26.5345, the “Figure 7 dose-response raw data, CV-B3” value ([4]; Concentration 0.3704 µM) was 108.081 and 95.0938 and 115.255 and the “Figure 7 dose-response raw data, CV-B3” value ([4]; Concentration 1.1111 µM) was 110.307 and 87.92 and 98.0623. For the same compound, the “Figure 7 dose-response raw data, CV-B3” value ([4]; Concentration 3.3333 µM) was 103.381 and 89.7753 and 100.165, the “Figure 7 dose-response raw data, CV-B3” value ([4]; Concentration 10 µM) was 102.144 and 95.7122 and 98.0623 and the EC50 ([4]; Enterovirus B, CVB3, HeLa) was 0.01 ± 0.01 µM. The EC50 ([4]; Enterovirus B, CVB3, HeLa R19, […], read-out: EC50 Exp1) was 0.18 µM, the EC50 ([4]; Enterovirus B, CVB3, HeLa R19, read-out: 50% effective concentration [EC50]) was 0.08 ± 0.08 µM and the EC50 ([4]; Enterovirus B, CVB3, HeLa R19, read-out: CV-B3 Exp 1 EC50) was 0.059 µM. It also gave an EC50 ([4]; Enterovirus B, CVB3, HeLa R19, read-out: CV-B3 Exp2 EC50) of 0.095 µM, an EC50 ([4]; Enterovirus B, CVB3, HeLa R19, read-out: EC50 Average) of 0.0187 µM and an EC50 ([4]; Enterovirus B, CVB3, HeLa R19, read-out: EC50 Exp1) of 0.017 µM. It also gave an EC50 ([4]; Enterovirus B, CVB3, HeLa R19, read-out: EC50 Exp2) of 0.37 µM, an EC50 ([4]; Enterovirus B, CVB3, HeLa R19, read-out: EC50 HelaR19 Average) of 0.0112 µM and an EC50 ([4]; Enterovirus B, CVB3, HeLa R19, read-out: Exp 1 EC50 HelaR19) of 0.004 µM. For the same compound, the EC50 ([4]; Enterovirus B, CVB3, HeLa R19, read-out: Exp 2 EC50 HelaR19) was 0.0183 µM, the EC50 ([4]; Enterovirus B, CVB3 / genotype 2c, HeLa R19, read-out: EC50 CV-B3 WT) was 0.02 ± 0.01 µM and the EC50 ([4]; read-out: EC50 Exp2) was 0.21 µM. For the same compound, the “virus titer, TCID50/ml (Figure 2A)” value ([5]; compound concentration 0.1 µM) was 469824 TCID50/ml and 562341 TCID50/ml and 300000 TCID50/ml, the “virus titer, TCID50/ml (Figure 2A)” value ([5]; compound concentration 1 µM) was 169824 TCID50/ml and 316228 TCID50/ml and the “virus titer, TCID50/ml (Figure 2A)” value ([5]; compound concentration 100 µM) was 316.228 TCID50/ml. For the same compound, the CC50 ([6]; CC50) was > 100 µM, the CC50 ([6]; CC50 BGM Average) was > 100 µM and the CC50 ([6]; Exp 1 CC50 BGM) was > 100 µM. The CC50 ([6]; Exp 2 CC50 BGM) was > 100 µM, the “Figure 7 dose-response raw data, CV-A24v (triplicate values)” value (“Figure 7 dose-response raw data, CV-A24v” below) ([7]; Concentration 0.0046 µM) was 10.497 and 11.7005 and 9.1598 and the “Figure 7 dose-response raw data, CV-A24v” value ([7]; Concentration 0.0137 µM) was 16.1819 and 13.1094 and 20.3605. For the same compound, the “Figure 7 dose-response raw data, CV-A24v” value ([7]; Concentration 0.0412 µM) was 16.1819 and 13.1094 and 20.3605, the “Figure 7 dose-response raw data, CV-A24v” value ([7]; Concentration 0.1235 µM) was 12.9865 and 12.4949 and 21.3437 and the “Figure 7 dose-response raw data, CV-A24v” value ([7]; Concentration 0.3704 µM) was 12.7407 and 14.2155 and 15.1987. The “Figure 7 dose-response raw data, CV-A24v” value ([7]; Concentration 1.1111 µM) was 10.0369 and 10.7743 and 14.83, the “Figure 7 dose-response raw data, CV-A24v” value ([7]; Concentration 3.3333 µM) was 9.791 and 10.5285 and 14.2155 and the “Figure 7 dose-response raw data, CV-A24v” value ([7]; Concentration 11.1111 µM) was 82.2926 and 86.3728 and 89.8506. The “Figure 7 dose-response raw data, CV-A24v” value ([7]; Concentration 33.3333 µM) was 113.496 and 111 and 111.553, the “Figure 7 dose-response raw data, CV-A24v” value ([7]; Concentration 100 µM) was 106.3 and 102.374 and 110.232 and the EC50 ([7]; Coxsackievirus, HeLa R19, read-out: EC50 CV-A24v strain 110386) was 1.94 ± 0.07 µM.
